Values joined by “and” are separate entries in the source; they are usually repeats but may differ in a detail not shown here. Equal entries are not always repeated. Inconclusive results and toxic doses are left out. Rule for the calls: active = survival T/C of 150% or more; inactive = T/C below 125% in these data.
Test system: P388 leukemia ip, CD2F1 mice, survival T/C
Experiment: NCI In Vivo Anticancer Drug Screen. Data for tumor model P388 Leukemia (intraperitoneal) in CD2F1 (CDF1) mice
Conditions: endpoint: median survival time, higher = longer survival
Method in brief: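 Mice carrying the transplanted tumor received test compound or vehicle. Survival was recorded in each group, and the value is the treated-group measurement divided by that of the vehicle-treated control group.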

[1] = dose: 50.0 mg/kg/injection, schedule: Q01DX009 (ip), vehicle: Klucel (hydroxypropylcellulose) (HPC)
[2] = dose: 100.0 mg/kg/injection, schedule: Q01DX009 (ip), vehicle: Klucel (hydroxypropylcellulose) (HPC)
[3] = dose: 200.0 mg/kg/injection, schedule: Q01DX009 (ip), vehicle: Klucel (hydroxypropylcellulose) (HPC)
[4] = dose: 50.0 mg/kg/injection, schedule: Q01DX009 (ip), vehicle: saline
[5] = dose: 100.0 mg/kg/injection, schedule: Q01DX009 (ip), vehicle: saline
[6] = dose: 200.0 mg/kg/injection, schedule: Q01DX009 (ip), vehicle: saline
[7] = dose: 50.0 mg/kg/injection, schedule: Q01DX005 (ip), vehicle: Klucel (hydroxypropylcellulose) (HPC)
[8] = dose: 100.0 mg/kg/injection, schedule: Q01DX005 (ip), vehicle: Klucel (hydroxypropylcellulose) (HPC)
[9] = dose: 200.0 mg/kg/injection, schedule: Q01DX005 (ip), vehicle: Klucel (hydroxypropylcellulose) (HPC)
[10] = dose: 12.5 mg/kg/injection, schedule: Q01DX005 (ip), vehicle: Klucel (hydroxypropylcellulose) (HPC)
[11] = dose: 25.0 mg/kg/injection, schedule: Q01DX005 (ip), vehicle: Klucel (hydroxypropylcellulose) (HPC)
[12] = dose: 50.0 mg/kg/injection, schedule: Q01DX005 (ip), vehicle: saline with Tween-80
[13] = dose: 100.0 mg/kg/injection, schedule: Q01DX005 (ip), vehicle: saline with Tween-80
[14] = dose: 25.0 mg/kg/injection, schedule: Q01DX009 (ip), vehicle: saline
[15] = dose: 12.5 mg/kg/injection, schedule: Q01DX009 (ip), vehicle: saline with Tween-80
[16] = dose: 50.0 mg/kg/injection, schedule: Q01DX009 (ip), vehicle: saline with Tween-80
[17] = dose: 100.0 mg/kg/injection, schedule: Q01DX009 (ip), vehicle: saline with Tween-80
[18] = dose: 60.0 mg/kg/injection, schedule: Q01DX005 (ip), vehicle: saline with Tween-80
[19] = dose: 120.0 mg/kg/injection, schedule: Q01DX005 (ip), vehicle: saline with Tween-80
[20] = dose: 240.0 mg/kg/injection, schedule: Q01DX005 (ip), vehicle: saline with Tween-80
[21] = dose: 200.0 mg/kg/injection, schedule: Q01DX009 (ip), vehicle: saline with Tween-80

Measured: T/C

C=C1CCN(c2ccc([N+](=O)[O-])cc2)C1=O
inactive: dose: 4.0 mg/kg/injection, schedule: Q01DX009 (ip), vehicle: saline + alcohol 94 % of control | dose: 8.0 mg/kg/injection, schedule: Q01DX009 (ip), vehicle: saline + alcohol 101 % of control | dose: 16.0 mg/kg/injection, schedule: Q01DX009 (ip), vehicle: saline + alcohol 102 % of control | dose: 32.0 mg/kg/injection, schedule: Q01DX009 (ip), vehicle: saline + alcohol 96 % of control | dose: 64.0 mg/kg/injection, schedule: Q01DX009 (ip), vehicle: saline + alcohol 88 % of control

FC(F)(F)c1ccc2c(c1)N=C(NNC1=Nc3cc(C(F)(F)F)ccc3SC1)CS2
inactive: dose: 15.0 mg/kg/injection, schedule: Q01DX005 (ip), vehicle: saline with Tween-80 91 % of control | dose: 30.0 mg/kg/injection, schedule: Q01DX005 (ip), vehicle: saline with Tween-80 86 % of control

Cc1ccc(Nc2cc(C(=O)O)c(Nc3ccc(C)cc3)cc2C(=O)O)cc1
inactive: [1] 102 % of control | [2] 111 % of control | [3] 102 % of control

O=c1cc[nH]c2ccccc12
inactive: [4] 96 % of control | [5] 92 % of control | [6] 97 % of control

Cc1c(N2CCCC2)cc2c(c1NC(=O)c1ccccc1Cl)C(C)(C)CC2(C)C
inactive: [1] 99 % of control | [2] 100 % of control | [3] 99 % of control

Brc1c(C(Br)Br)ccc2ccccc12
inactive: [7] 103 % of control | [8] 105 % of control | [9] 109 % of control

COc1ccc2c(c1OC)C(O)N1CCc3cc4c(cc3C1=C2C(=O)c1ccccc1)OCO4 (stereo unspecified)
inactive: [10] 100 % of control and 106 % of control | [11] 100 % of control and 94 % of control | [7] 103 % of control (2×) and 123 % of control | [8] 111 % of control

CN(C)C(=O)Sc1nnc(C(C)(C)C)o1
inactive: [11] 100 % of control | [7] 106 % of control | [8] 106 % of control

O=C(N1C2c3ccsc3[C@@H](O)C21)C(F)(F)F (stereo partly specified)
inactive: [12] 88 % of control | [13] 95 % of control | dose: 200.0 mg/kg/injection, schedule: Q01DX005 (ip), vehicle: saline with Tween-80 100 % of control

O=C(O)C(Cc1ccc(O)cc1)NS(=O)(=O)Cc1ccccc1 (stereo unspecified)
inactive: dose: 100.0 mg/kg/injection, schedule: Q01DX009 (ip), vehicle: DMSO 99 % of control | dose: 200.0 mg/kg/injection, schedule: Q01DX009 (ip), vehicle: DMSO 92 % of control

COc1cc(CCN)ccc1OCc1ccccc1
inactive: [14] 107 % of control | [4] 104 % of control | [5] 110 % of control

c1c[nH]c(C2Nc3ccccc3CO2)c1 (stereo unspecified)
inactive: [7] 115 % of control | [8] 107 % of control | [9] 112 % of control

C/C=C/CCC(=O)CC(O)CCO (stereo unspecified)
inactive: [10] 101 % of control | [11] 98 % of control | [7] 104 % of control and 89 % of control | [8] 104 % of control | [9] 101 % of control | dose: 400.0 mg/kg/injection, schedule: Q01DX005 (ip), vehicle: Klucel (hydroxypropylcellulose) (HPC) 111 % of control

C=CCNC(=S)NC(c1ccc(OC)cc1)C(CC)c1ccc(OC)cc1 (stereo unspecified)
inactive: dose: 100.0 mg/kg/injection, schedule: Q04DX002 (ip), vehicle: saline with Tween-80 100 % of control | dose: 200.0 mg/kg/injection, schedule: Q04DX002 (ip), vehicle: saline with Tween-80 101 % of control | dose: 400.0 mg/kg/injection, schedule: Q04DX002 (ip), vehicle: saline with Tween-80 106 % of control

CN(C)N=Nc1cccc(Cl)c1
inactive: dose: 6.25 mg/kg/injection, schedule: Q01DX009 (ip), vehicle: Klucel (hydroxypropylcellulose) (HPC) 95 % of control | dose: 12.5 mg/kg/injection, schedule: Q01DX009 (ip), vehicle: Klucel (hydroxypropylcellulose) (HPC) 105 % of control | [15] 100 % of control | dose: 25.0 mg/kg/injection, schedule: Q01DX009 (ip), vehicle: Klucel (hydroxypropylcellulose) (HPC) 98 % of control | dose: 25.0 mg/kg/injection, schedule: Q01DX009 (ip), vehicle: saline + alcohol 107 % of control | dose: 25.0 mg/kg/injection, schedule: Q01DX009 (ip), vehicle: saline with Tween-80 98 % of control | [14] 91 % of control | [1] 100 % of control | dose: 50.0 mg/kg/injection, schedule: Q01DX009 (ip), vehicle: saline + alcohol 120 % of control | [16] 107 % of control | [4] 99 % of control | [17] 105 % of control | [5] 97 % of control | [6] 100 % of control

COc1ccc(N2C(=O)C3CSCN3C2=O)cc1 (stereo unspecified)
inactive: [18] 100 % of control | [19] 94 % of control | [20] 92 % of control

S=c1ncc2[nH]cnc2[nH]1
inactive: [7] 99 % of control | [8] 105 % of control | [9] 105 % of control

Fc1cccc(Cl)c1C(Nc1cnccn1)Nc1cnccn1
inactive: dose: 60.0 mg/kg/injection, schedule: Q01DX005 (ip), vehicle: Klucel (hydroxypropylcellulose) (HPC) 104 % of control | dose: 120.0 mg/kg/injection, schedule: Q01DX005 (ip), vehicle: Klucel (hydroxypropylcellulose) (HPC) 119 % of control

COc1ccc(Nc2ccc([N+](=O)[O-])c3nonc23)cc1
inactive: [12] 92 % of control | [13] 87 % of control

O=c1[nH]c(CNCCO)nc2sc3c(c12)CCCC3
inactive: [16] 100 % of control | [17] 105 % of control | [21] 96 % of control

O=c1[nH]c2ccccc2nc1CBr
inactive: dose: 1.56 mg/kg/injection, schedule: Q01DX009 (ip), vehicle: saline with Tween-80 109 % of control | dose: 3.13 mg/kg/injection, schedule: Q01DX009 (ip), vehicle: saline with Tween-80 109 % of control | dose: 6.25 mg/kg/injection, schedule: Q01DX009 (ip), vehicle: saline with Tween-80 113 % of control | dose: 8.33 mg/kg/injection, schedule: Q01DX009 (ip), vehicle: saline with Tween-80 118 % of control | [15] 113 % of control and 122 % of control | dose: 18.7 mg/kg/injection, schedule: Q01DX009 (ip), vehicle: saline with Tween-80 118 % of control

O=C1C(O)=C(c2ccccc2)C12CSC1(CS2)C(=O)C(O)=C1c1ccccc1 (stereo unspecified)
inactive: [18] 100 % of control | [19] 94 % of control | [20] 91 % of control

O=C1c2ccccc2C2(O)C3C=CCCN3CN12 (stereo unspecified)
inactive: [7] 101 % of control | [8] 100 % of control | [9] 100 % of control

CC1Cn2c(nnc2-c2ccccc2O)S1 (stereo unspecified)
inactive: [18] 96 % of control | [19] 100 % of control | [20] 101 % of control

CCCCCCCCCCCCCCC(Br)C(=O)O (stereo unspecified)
inactive: [4] 101 % of control | [5] 103 % of control

Fc1c(F)c(C(F)(F)F)c(F)c(F)c1-n1nnc(-c2ccccc2)n1
inactive: [7] 99 % of control | [8] 96 % of control | [9] 100 % of control

O=[N+]([O-])c1ccc(N/N=C\c2c(Cl)[nH]c3ccccc23)c([N+](=O)[O-])c1
inactive: [16] 93 % of control | [17] 93 % of control | [21] 87 % of control
